Measurements: PubChem BioAssay (NCI)
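The compound was tested at five concentrations on cells cultured in 96-well plates, with a 48-hour exposure period. At the TGI there is no net growth.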

How the values were obtained:
Experiment in all cases: inhibition of tumour cell growth, NCI panel, 48 h
OVCAR-4 ovarian = test system: OVCAR-4 ovarian
EKVX NSCLC = test system: EKVX NSCLC
K-562 leukemia = test system: K-562 leukemia
COLO 205 colon = test system: COLO 205 colon
SNB-19 CNS = test system: SNB-19 CNS
HS 578T breast = test system: HS 578T breast
MDA-MB-231 breast = test system: MDA-MB-231 breast
T-47D breast = test system: T-47D breast
SF-539 CNS = test system: SF-539 CNS
UACC-62 melanoma = test system: UACC-62 melanoma
SK-MEL-28 melanoma = test system: SK-MEL-28 melanoma
SF-268 CNS = test system: SF-268 CNS
HT29 colon = test system: HT29 colon
U251 CNS = test system: U251 CNS
NCI-H522 lung = test system: NCI-H522 lung
KM12 colon = test system: KM12 colon
M14 melanoma = test system: M14 melanoma
BT-549 breast = test system: BT-549 breast
MDA-MB-435 = test system: MDA-MB-435
DU-145 prostate = test system: DU-145 prostate
A549 NSCLC = test system: A549 NSCLC
NCI/ADR-RES ovarian = test system: NCI/ADR-RES ovarian
LOX IMVI melanoma = test system: LOX IMVI melanoma
UO-31 renal = test system: UO-31 renal
SN12C renal = test system: SN12C renal
OVCAR-5 ovarian = test system: OVCAR-5 ovarian
HL-60(TB) leukemia = test system: HL-60(TB) leukemia
CCRF-CEM leukemia = test system: CCRF-CEM leukemia
HCT-116 colon = test system: HCT-116 colon
SF-295 CNS = test system: SF-295 CNS
MCF7 breast = test system: MCF7 breast
HOP-62 NSCLC = test system: HOP-62 NSCLC
NCI-H226 lung = test system: NCI-H226 lung
786-0 renal = test system: 786-0 renal
NCI-H23 lung = test system: NCI-H23 lung
SNB-75 CNS = test system: SNB-75 CNS
TK-10 renal = test system: TK-10 renal
MOLT-4 leukemia = test system: MOLT-4 leukemia
HOP-92 NSCLC = test system: HOP-92 NSCLC
UACC-257 melanoma = test system: UACC-257 melanoma
A498 renal = test system: A498 renal
RXF 393 renal = test system: RXF 393 renal
HCC-2998 colon = test system: HCC-2998 colon
CAKI-1 renal = test system: CAKI-1 renal
NCI-H460 lung = test system: NCI-H460 lung
ACHN renal = test system: ACHN renal
SK-MEL-2 melanoma = test system: SK-MEL-2 melanoma
MDA-N = test system: MDA-N
HCT-15 colon = test system: HCT-15 colon
MALME-3M melanoma = test system: MALME-3M melanoma
SK-MEL-5 melanoma = test system: SK-MEL-5 melanoma
OVCAR-8 ovarian = test system: OVCAR-8 ovarian
OVCAR-3 ovarian = test system: OVCAR-3 ovarian
SK-OV-3 ovarian = test system: SK-OV-3 ovarian
IGROV1 ovarian = test system: IGROV1 ovarian
PC-3 prostate = test system: PC-3 prostate
SR leukemia = test system: SR leukemia
RPMI-8226 leukemia = test system: RPMI-8226 leukemia
SW-620 colon = test system: SW-620 colon

NC1CC(=O)c2csc(Cl)c21 (stereo not given)
TGI (OVCAR-4 ovarian): 68.8 µM
TGI (EKVX NSCLC): 35.9 µM
TGI (K-562 leukemia): > 100 µM
TGI (COLO 205 colon): 12.1 µM
TGI (SNB-19 CNS): 33.2 µM
TGI (HS 578T breast): > 100 µM
TGI (MDA-MB-231 breast): 22.5 µM
TGI (T-47D breast): > 23.6 µM
TGI (SF-539 CNS): 9.56 µM
TGI (UACC-62 melanoma): 24.7 µM
TGI (SK-MEL-28 melanoma): 46.3 µM
TGI (SF-268 CNS): 31.8 µM
TGI (HT29 colon): 29.2 µM
TGI (U251 CNS): 22.9 µM
TGI (NCI-H522 lung): 3.32 µM
TGI (KM12 colon): 17.4 µM
TGI (M14 melanoma): 23.7 µM
TGI (BT-549 breast): 33.4 µM
TGI (MDA-MB-435): 27.3 µM
TGI (DU-145 prostate): 20.9 µM
TGI (A549 NSCLC): 36.7 µM
TGI (NCI/ADR-RES ovarian): > 86.7 µM
TGI (LOX IMVI melanoma): 24.1 µM
TGI (UO-31 renal): 12.7 µM
TGI (SN12C renal): 14.2 µM
TGI (OVCAR-5 ovarian): 37.1 µM
TGI (HL-60(TB) leukemia): 13.1 µM
TGI (CCRF-CEM leukemia): 3.68 µM
TGI (HCT-116 colon): 14.1 µM
TGI (SF-295 CNS): 32 µM
TGI (MCF7 breast): > 100 µM
TGI (HOP-62 NSCLC): 29.1 µM
TGI (NCI-H226 lung): 94.6 µM
TGI (786-0 renal): 2.96 µM
TGI (NCI-H23 lung): 54 µM
TGI (SNB-75 CNS): 31.8 µM
TGI (TK-10 renal): 24.1 µM
TGI (MOLT-4 leukemia): 3.87 µM
TGI (HOP-92 NSCLC): 25.4 µM
TGI (UACC-257 melanoma): 29 µM
TGI (A498 renal): 33.5 µM
TGI (RXF 393 renal): 17.8 µM
TGI (HCC-2998 colon): 33.9 µM
TGI (CAKI-1 renal): 3.68 µM
TGI (NCI-H460 lung): 49.5 µM
TGI (ACHN renal): 10.3 µM
TGI (SK-MEL-2 melanoma): 30.7 µM
TGI (MDA-N): 22 µM
TGI (HCT-15 colon): 14.2 µM
TGI (MALME-3M melanoma): 7.56 µM
TGI (SK-MEL-5 melanoma): 35.3 µM
TGI (OVCAR-8 ovarian): 23 µM
TGI (OVCAR-3 ovarian): 30.9 µM
TGI (SK-OV-3 ovarian): 31.1 µM
TGI (IGROV1 ovarian): 42.2 µM
TGI (PC-3 prostate): 23.9 µM

Cc1ccc(C(CC(=O)C(C)(C)CN2CCCCC2)SCCS(=O)(=O)O)cc1 (stereo not given)
TGI (OVCAR-4 ovarian): 84.3 µM
TGI (EKVX NSCLC): 66.5 µM
TGI (K-562 leukemia): 51.4 µM
TGI (COLO 205 colon): 35.3 µM
TGI (SNB-19 CNS): > 100 µM
TGI (HS 578T breast): 68.9 µM
TGI (MDA-MB-231 breast): > 100 µM
TGI (SF-539 CNS): 49.1 µM
TGI (UACC-62 melanoma): 46.8 µM
TGI (SF-268 CNS): > 100 µM
TGI (HT29 colon): 72.8 µM
TGI (U251 CNS): 81.8 µM
TGI (NCI-H522 lung): 51.2 µM
TGI (KM12 colon): > 100 µM
TGI (M14 melanoma): 50.1 µM
TGI (BT-549 breast): > 100 µM
TGI (MDA-MB-435): 57.7 µM
TGI (DU-145 prostate): > 100 µM
TGI (A549 NSCLC): > 100 µM
TGI (NCI/ADR-RES ovarian): 84.9 µM
TGI (SR leukemia): 45.3 µM
TGI (UO-31 renal): 65.3 µM
TGI (SN12C renal): 94.8 µM
TGI (OVCAR-5 ovarian): > 100 µM
TGI (CCRF-CEM leukemia): 45.9 µM
TGI (HCT-116 colon): 59.2 µM
TGI (SF-295 CNS): 73.4 µM
TGI (MCF7 breast): 83.8 µM
TGI (HOP-62 NSCLC): 78.8 µM
TGI (NCI-H226 lung): 70.5 µM
TGI (786-0 renal): 59.9 µM
TGI (NCI-H23 lung): 86.5 µM
TGI (SNB-75 CNS): 96.4 µM
TGI (TK-10 renal): 86 µM
TGI (MOLT-4 leukemia): 48.7 µM
TGI (HOP-92 NSCLC): 42.3 µM
TGI (A498 renal): 48.7 µM
TGI (RXF 393 renal): 57.1 µM
TGI (HCC-2998 colon): 83.3 µM
TGI (CAKI-1 renal): 51 µM
TGI (RPMI-8226 leukemia): 48.1 µM
TGI (NCI-H460 lung): > 100 µM
TGI (ACHN renal): 70.8 µM
TGI (SK-MEL-2 melanoma): 40.1 µM
TGI (MDA-N): > 100 µM
TGI (HCT-15 colon): 72 µM
TGI (MALME-3M melanoma): 73.2 µM
TGI (SK-MEL-5 melanoma): 46.5 µM
TGI (OVCAR-8 ovarian): 65.4 µM
TGI (SW-620 colon): 62.8 µM
TGI (OVCAR-3 ovarian): 49.5 µM
TGI (SK-OV-3 ovarian): 91 µM
TGI (IGROV1 ovarian): > 100 µM
TGI (PC-3 prostate): > 100 µM

COc1ccc(N2C(=O)c3cccnc3S2(=O)=O)cc1
TGI (OVCAR-4 ovarian): > 100 µM
TGI (EKVX NSCLC): > 100 µM
TGI (K-562 leukemia): > 100 µM
TGI (COLO 205 colon): > 100 µM
TGI (SNB-19 CNS): > 100 µM
TGI (MDA-MB-231 breast): > 100 µM
TGI (T-47D breast): > 100 µM
TGI (SF-539 CNS): > 100 µM
TGI (UACC-62 melanoma): > 100 µM
TGI (SK-MEL-28 melanoma): > 100 µM
TGI (SF-268 CNS): > 100 µM
TGI (HT29 colon): > 100 µM
TGI (U251 CNS): > 100 µM
TGI (NCI-H522 lung): > 100 µM
TGI (KM12 colon): > 100 µM
TGI (M14 melanoma): > 100 µM
TGI (BT-549 breast): > 100 µM
TGI (MDA-MB-435): > 100 µM
TGI (DU-145 prostate): > 100 µM
TGI (A549 NSCLC): > 100 µM
TGI (NCI/ADR-RES ovarian): > 100 µM
TGI (SR leukemia): > 100 µM
TGI (UO-31 renal): > 100 µM
TGI (SN12C renal): > 100 µM
TGI (OVCAR-5 ovarian): > 100 µM
TGI (HL-60(TB) leukemia): > 100 µM
TGI (CCRF-CEM leukemia): > 100 µM
TGI (HCT-116 colon): > 100 µM
TGI (SF-295 CNS): > 100 µM
TGI (MCF7 breast): > 100 µM
TGI (HOP-62 NSCLC): > 100 µM
TGI (NCI-H226 lung): > 100 µM
TGI (786-0 renal): > 100 µM
TGI (NCI-H23 lung): > 100 µM
TGI (SNB-75 CNS): > 100 µM
TGI (MOLT-4 leukemia): > 100 µM
TGI (HOP-92 NSCLC): > 100 µM
TGI (UACC-257 melanoma): > 100 µM
TGI (A498 renal): > 100 µM
TGI (RXF 393 renal): > 100 µM
TGI (HCC-2998 colon): > 100 µM
TGI (CAKI-1 renal): > 100 µM
TGI (RPMI-8226 leukemia): > 100 µM
TGI (NCI-H460 lung): > 100 µM
TGI (ACHN renal): > 100 µM
TGI (SK-MEL-2 melanoma): > 100 µM
TGI (MDA-N): > 100 µM
TGI (HCT-15 colon): > 100 µM
TGI (MALME-3M melanoma): > 100 µM
TGI (OVCAR-8 ovarian): > 100 µM
TGI (SW-620 colon): > 100 µM
TGI (OVCAR-3 ovarian): > 100 µM
TGI (SK-OV-3 ovarian): > 100 µM
TGI (IGROV1 ovarian): > 100 µM
TGI (PC-3 prostate): > 100 µM
